From BigSolDB 2.1

Nc1ccc(S(=O)(=O)Nc2ccc(Cl)nn2)cc1
solubility (mole fraction)
Conditions	in 1,4-dioxane	in acetone	in acetonitrile	in ethanol	in ethyl acetate	in isopropanol	in methanol	in n-butanol	in water
283.15 K	0.0994	0.0647	0.0187	0.00381	0.0135	0.0031	0.00473	0.00335	2.25e-05
288.15 K	0.106	0.0715	0.0193	0.00432	0.0141	0.00345	0.00513	0.00372	3.31e-05
293.15 K	0.116	0.0804	0.0202	0.00484	0.0152	0.00382	0.00569	0.00421	4.39e-05
298.15 K	0.129	0.0908	0.0213	0.00543	0.0165	0.00429	0.00627	0.00474	5.9e-05
303.15 K	0.143	0.102	0.0224	0.00616	0.0179	0.00476	0.00696	0.00531	7.53e-05
308.15 K	0.159	0.116	0.0239	0.00689	0.0198	0.00538	0.00779	0.00596	9.52e-05
313.15 K	0.179	0.131	0.0258	0.00777	0.0219	0.00614	0.00867	0.00676	0.000119
318.15 K	0.204	0.147	0.0283	0.00879	0.0244	0.00702	0.00966	0.00768	0.000149
323.15 K	0.235	0.165	0.0312	0.0101	0.0268	0.00792	0.0109	0.00867	0.000184
